Results from patent US9211310B2, “Use of a Chinese medicine composition in preparing medicaments for treating secondary prevention of myocardial infarction” (TASLY PHARMACEUTICAL GROUP CO., LTD, priority 2010, dated 2015).

System: patients after acute myocardial infarction
Test: Life quality, Seattle Angina Questionnaire (SAQ), same clinical trial
Assay type: in vivo, human
Text: 3508 patients who were in accordance with the diagnostic standards of AMI for 28 days to 2 years and differentiated as Qi deficiency and blood stagnation syndrome by TCM were studied. 0.5 g Chinese medicine composition prepared by the method of EXAMPLE 1 (Coded as QSYQ) was administrated half an hour after meal, 3 times per day.
There were 19 questions in the Seattle angina questionnaire (SAQ), including 5 parts: physical limitation (PL), anginal stability (AS), anginal frequency (AF), treatment satisfaction (TS) and disease perception (DP). After being given necessary explanation by doctors, the questions were answered independently by patients.
They included the overall survival time, angina pectoris score, TCM symptom score and life quality score, where angina pectoris score, TCM symptom score and life quality score were evaluated at randomization, in 1st, 3rd, 6th, 9th, 12th month after treatment and 18th month after follow-up.
All evaluation results of SAQ were described during the period of observation, and Wilcoxon rank sum test was used for inter-group comparison.
The evaluation results in the SAQ were depicted in different observations, and inter-group comparison was tested by Wilcoxon Rank-sum test.

SMILES: CC(=O)Oc1ccccc1C(=O)O [Control group, aspirine]
- SAQ Question 1-3: Slightly limited, percent of patients (6 months after treatment, PP): (15.66%)
- SAQ Question 1-4: Mildly limited, number of patients (6 months after treatment, PP): 266
- SAQ Question 1-4: Mildly limited, percent of patients (6 months after treatment, PP): (18.37%)
- SAQ Question 1-4: Moderately limited, number of patients (6 months after treatment, PP): 74
- SAQ Question 1-4: Moderately limited, percent of patients (6 months after treatment, PP): (5.11%)
- SAQ Question 1-4: Not limited, number of patients (6 months after treatment, PP): 613
- SAQ Question 1-4: Not limited, percent of patients (6 months after treatment, PP): (42.33%)
- SAQ Question 1-4: Other reasons, number of patients (6 months after treatment, PP): 12
- SAQ Question 1-4: Other reasons, percent of patients (6 months after treatment, PP): (0.83%)
- SAQ Question 1-4: Severely limited, number of patients (6 months after treatment, PP): 20
- SAQ Question 1-4: Severely limited, percent of patients (6 months after treatment, PP): (1.38%)
- SAQ Question 1-4: Slightly limited, number of patients (6 months after treatment, PP): 463
- SAQ Question 1-4: Slightly limited, percent of patients (6 months after treatment, PP): (31.98%)
- SAQ Question 1-5: Mildly limited, number of patients (6 months after treatment, PP): 244
- SAQ Question 1-5: Mildly limited, percent of patients (6 months after treatment, PP): (16.86%)
- SAQ Question 1-5: Moderately limited, number of patients (6 months after treatment, PP): 109
- SAQ Question 1-5: Moderately limited, percent of patients (6 months after treatment, PP): (7.53%)
- SAQ Question 1-5: Not limited, number of patients (6 months after treatment, PP): 637
- SAQ Question 1-5: Not limited, percent of patients (6 months after treatment, PP): (44.02%)
- SAQ Question 1-5: Other reasons, number of patients (6 months after treatment, PP): 12
- SAQ Question 1-5: Other reasons, percent of patients (6 months after treatment, PP): (0.83%)
- SAQ Question 1-5: Severely limited, number of patients (6 months after treatment, PP): 12
- SAQ Question 1-5: Severely limited, percent of patients (6 months after treatment, PP): (0.83%)
- SAQ Question 1-5: Slightly limited, number of patients (6 months after treatment, PP): 433
- SAQ Question 1-5: Slightly limited, percent of patients (6 months after treatment, PP): (29.92%)
- SAQ Question 1-9: Mildly limited, % of cases (6 months after treatment, PP): (20.47%)
- SAQ Question 1-9: Mildly limited, cases (6 months after treatment, PP): 289
- SAQ Question 1-9: Moderately limited, % of cases (6 months after treatment, PP): (21.60%)
- SAQ Question 1-9: Moderately limited, cases (6 months after treatment, PP): 305
- SAQ Question 1-9: Not limited, % of cases (6 months after treatment, PP): (3.54%)
- SAQ Question 1-9: Not limited, cases (6 months after treatment, PP): 50
- SAQ Question 1-9: Other limited, % of cases (6 months after treatment, PP): (6.37%)
- SAQ Question 1-9: Other limited, cases (6 months after treatment, PP): 90
- SAQ Question 1-9: Severely limited, % of cases (6 months after treatment, PP): (34.70%)
- SAQ Question 1-9: Severely limited, cases (6 months after treatment, PP): 490
- SAQ Question 1-9: Slightly limited, % of cases (6 months after treatment, PP): (13.31%)
- SAQ Question 1-9: Slightly limited, cases (6 months after treatment, PP): 188
- SAQ 2nd question: 6, % of cases (9 months after treatment, FAS): (0.00%)
- SAQ 2nd question: 6, cases (9 months after treatment, FAS): 0
- SAQ 2nd question: Clearly increased, % of cases (9 months after treatment, FAS): (1.44%)
- SAQ 2nd question: Clearly increased, cases (9 months after treatment, FAS): 25
- SAQ 2nd question: Clearly reduced, % of cases (9 months after treatment, FAS): (24.17%)
- SAQ 2nd question: Clearly reduced, cases (9 months after treatment, FAS): 421
- SAQ 2nd question: Same, % of cases (9 months after treatment, FAS): (35.94%)
- SAQ 2nd question: Same, cases (9 months after treatment, FAS): 626
- SAQ 2nd question: Slightly increased, % of cases (9 months after treatment, FAS): (3.96%)
- SAQ 2nd question: Slightly increased, cases (9 months after treatment, FAS): 69
- SAQ 2nd question: Slightly reduced, % of cases (9 months after treatment, FAS): (34.50%)
- SAQ 2nd question: Slightly reduced, cases (9 months after treatment, FAS): 601
- SAQ 3rd question: 1-2 times per week, % of cases (9 months after treatment, FAS): (34.50%)
- SAQ 3rd question: 1-2 times per week, cases (9 months after treatment, FAS): 601
- SAQ 3rd question: 1-3 times per day, % of cases (9 months after treatment, FAS): (3.96%)
- SAQ 3rd question: 1-3 times per day, cases (9 months after treatment, FAS): 69
- SAQ 3rd question: <1 time per week, % of cases (9 months after treatment, FAS): (24.17%)
- SAQ 3rd question: <1 time per week, cases (9 months after treatment, FAS): 421
- SAQ 3rd question: No onset, % of cases (9 months after treatment, FAS): (0.00%)
- SAQ 3rd question: No onset, cases (9 months after treatment, FAS): 0
- SAQ 3rd question: ≧3 times per week, % of cases (9 months after treatment, FAS): (35.94%)
- SAQ 3rd question: ≧3 times per week, cases (9 months after treatment, FAS): 626
- SAQ 3rd question: ≧4 times per day, % of cases (9 months after treatment, FAS): (1.44%)
- SAQ 3rd question: ≧4 times per day, cases (9 months after treatment, FAS): 25
- SAQ Question 1-3: Mildly limited, number of patients (9 months after treatment, FAS): 58
- SAQ Question 1-3: Mildly limited, percent of patients (9 months after treatment, FAS): (3.33%)
- SAQ Question 1-3: Moderately limited, number of patients (9 months after treatment, FAS): 17
- SAQ Question 1-3: Moderately limited, percent of patients (9 months after treatment, FAS): (0.97%)
- SAQ Question 1-3: Not limited, number of patients (9 months after treatment, FAS): 1421
- SAQ Question 1-3: Not limited, percent of patients (9 months after treatment, FAS): (81.48%)
- SAQ Question 1-3: Other reasons, number of patients (9 months after treatment, FAS): 8
- SAQ Question 1-3: Other reasons, percent of patients (9 months after treatment, FAS): (0.46%)
- SAQ Question 1-3: Severely limited, number of patients (9 months after treatment, FAS): 2
- SAQ Question 1-3: Severely limited, percent of patients (9 months after treatment, FAS): (0.11%)
- SAQ Question 1-3: Slightly limited, number of patients (9 months after treatment, FAS): 238
- SAQ Question 1-3: Slightly limited, percent of patients (9 months after treatment, FAS): (13.65%)
- SAQ Question 1-4: Mildly limited, number of patients (9 months after treatment, FAS): 264
- SAQ Question 1-4: Mildly limited, percent of patients (9 months after treatment, FAS): (15.14%)
- SAQ Question 1-4: Moderately limited, number of patients (9 months after treatment, FAS): 85
- SAQ Question 1-4: Moderately limited, percent of patients (9 months after treatment, FAS): (4.87%)
